Tested on: dopamine release
Test: Dopamine release (receptor activation/inhibition)
Type: biochemical
Conditions: for Emax (dopamine release): amount released relative to (S)-(-)-nicotine or tetramethylammonium ion (TMA); for EC50: activation of dopamine release
Description: Dopamine release was measured using the techniques described in U.S. Pat. No. 5,597,919 to Dull et al. Release is expressed as a percentage of release obtained with a concentration of (S)-(-)-nicotine resulting in maximal effects. Reported EC50 values are expressed in nM, and Emax values represent the amount released relative to (S)-(-)-nicotine or tetramethylammonium ion (TMA), on a percentage basis.
Reported IC50 values are expressed in nM and represent the concentration resulting in 50% inhibition of agonist induced receptor activation. Emax values represent the amount released relative to (S)-(-)-nicotine on a percentage basis.

Structure (SMILES)	Emax (dopamine release) [%]	EC50 [µM]
c1cncc(C2C3CC4CC(C3)CN2C4)c1 (stereo not drawn) [Sample No. 1, 1-aza-2-(3-pyridyl)-tricyclo[3.3.1.1^3,7]decane]	0	–
Brc1cncc(C2C3CC4CC(C3)CN2C4)c1 (stereo not drawn) [Sample No. 2, 1-aza-2-[5-bromo(3-pyridyl)]tricyclo[3.3.1.1^3,7]decane]	0	> 100
Cl.Cl.Cl.Nc1cncc(C2C3CC4CC(C3)CN2C4)c1 (stereo not drawn) [Sample No. 3, 1-aza-2-[5-amino-(3-pyridyl)]tricyclo[3.3.1.1^3,7]decane trihydrochloride]	0	> 100
CCOc1cncc(C2C3CC4CC(C3)CN2C4)c1 (stereo not drawn) [Sample No. 4, 1-aza-2-[5-ethoxy-(3-pyridyl)]-tricyclo-[3.3.1.1^3,7]decane]	0	> 100
CC(C)Oc1cncc(C2C3CC4CC(C3)CN2C4)c1 (stereo not drawn) [Sample No. 5, 1-aza-2-[5-isopropoxy-(3-pyridyl)]tricyclo[3.3.1.1^3,7]decane]	0	> 100
